Measurements published in ChEMBL document CHEMBL1201862, “PubChem BioAssay data set” (2004).
Calls of active or inactive are those of the source.

Experiments:
[1] = test system: Streptococcus sp. 'group A'; experiment: growth inhibition of control SK(-) GAS strain, dose response, counter-screen for streptokinase expression inhibitor project, luminescence, kanamycin, BacTiterGlo, confirmation (AID 1900); assay type: functional, organism-based
Streptokinase A = target: T1, Streptokinase A (Streptococcus pyogenes serotype M1, UniProt P10520); experiment: S. pyogenes streptokinase expression inhibitors, potency, dose response, plasminogen activation absorbance, OD405 (AID 1914); assay type: functional, Streptococcus pyogenes M1 GAS;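 further: secreted streptokinase activity via plasminogen activation per viability signal from cell pellet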
T1 sequence (P10520 whole entry): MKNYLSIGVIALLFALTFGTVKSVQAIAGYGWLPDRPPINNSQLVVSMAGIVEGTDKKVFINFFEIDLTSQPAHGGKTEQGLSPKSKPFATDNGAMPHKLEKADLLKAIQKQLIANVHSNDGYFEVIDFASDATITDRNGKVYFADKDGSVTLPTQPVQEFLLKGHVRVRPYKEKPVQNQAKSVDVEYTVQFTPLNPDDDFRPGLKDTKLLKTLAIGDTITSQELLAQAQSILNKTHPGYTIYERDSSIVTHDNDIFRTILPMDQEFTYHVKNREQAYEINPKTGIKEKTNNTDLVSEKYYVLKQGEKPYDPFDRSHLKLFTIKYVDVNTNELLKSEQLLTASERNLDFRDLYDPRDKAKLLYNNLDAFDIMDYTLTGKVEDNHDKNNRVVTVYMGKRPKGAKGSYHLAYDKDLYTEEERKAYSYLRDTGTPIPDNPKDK

[2] = target: Small ubiquitin-related modifier 2 (Homo sapiens, UniProt P61956); experiment: inhibitors of SUMO2 protein-protein interaction, dose response, selectivity assay for SUMO1 interaction inhibitor project, biochemical, FRET, human SUMO2, uHTS hits (AID 624384); assay type: functional; conditions: read-out: IC50_Mean
[3] = target: Small ubiquitin-related modifier 1 (Homo sapiens, UniProt P63165); experiment: inhibitors of SUMO1 peptide binding, dose response, biochemical, fluorescence polarization, uHTS hits (AID 624382); assay type: functional; conditions: read-out: IC50_Mean
[4] = target: T2, Long-chain-fatty-acid--AMP ligase FadD28 (Mycobacterium tuberculosis, UniProt P9WQ59); experiment: Fluorescence polarization aasay to screen for inhibitors that compete for the binding of FadD28 to a bisubstrate Measured in Biochemical System Using Plate Reader - 2147-01_Inhibitor_Dose_CherryPick_Activity.; assay type: functional, Mycobacterium tuberculosis H37Rv
T2 sequence (P9WQ59 whole entry): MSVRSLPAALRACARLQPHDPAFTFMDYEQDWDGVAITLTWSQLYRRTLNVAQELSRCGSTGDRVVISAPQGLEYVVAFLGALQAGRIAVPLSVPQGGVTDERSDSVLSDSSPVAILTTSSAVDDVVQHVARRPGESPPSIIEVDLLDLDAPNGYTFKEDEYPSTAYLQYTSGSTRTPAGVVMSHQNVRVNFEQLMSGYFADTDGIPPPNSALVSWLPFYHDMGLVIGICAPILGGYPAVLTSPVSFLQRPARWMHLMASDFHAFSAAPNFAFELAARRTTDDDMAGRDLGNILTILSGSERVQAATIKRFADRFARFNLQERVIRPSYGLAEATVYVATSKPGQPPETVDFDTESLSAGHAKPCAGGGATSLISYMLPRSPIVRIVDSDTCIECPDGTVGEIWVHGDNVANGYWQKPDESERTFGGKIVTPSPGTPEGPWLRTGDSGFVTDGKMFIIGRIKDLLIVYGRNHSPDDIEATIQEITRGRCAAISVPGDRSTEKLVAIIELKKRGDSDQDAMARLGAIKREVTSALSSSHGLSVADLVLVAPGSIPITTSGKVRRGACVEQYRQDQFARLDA

Genome polyprotein = Genome polyprotein (dengue virus type 2, UniProt P29990); experiment: Dengue-2 NS5 methyltransferase inhibitors, primary screen, biochemical, confirmation dose response (AID 588689); assay type: functional
[5] = target: T3, Replicative DNA helicase DnaB (Mycobacterium tuberculosis, UniProt P9WMR3); experiment: DnaB intein splicing inhibitors, dose response, biochemical, cell-free fluorescence (AID 449749); assay type: functional
T3 sequence (P9WMR3 whole entry): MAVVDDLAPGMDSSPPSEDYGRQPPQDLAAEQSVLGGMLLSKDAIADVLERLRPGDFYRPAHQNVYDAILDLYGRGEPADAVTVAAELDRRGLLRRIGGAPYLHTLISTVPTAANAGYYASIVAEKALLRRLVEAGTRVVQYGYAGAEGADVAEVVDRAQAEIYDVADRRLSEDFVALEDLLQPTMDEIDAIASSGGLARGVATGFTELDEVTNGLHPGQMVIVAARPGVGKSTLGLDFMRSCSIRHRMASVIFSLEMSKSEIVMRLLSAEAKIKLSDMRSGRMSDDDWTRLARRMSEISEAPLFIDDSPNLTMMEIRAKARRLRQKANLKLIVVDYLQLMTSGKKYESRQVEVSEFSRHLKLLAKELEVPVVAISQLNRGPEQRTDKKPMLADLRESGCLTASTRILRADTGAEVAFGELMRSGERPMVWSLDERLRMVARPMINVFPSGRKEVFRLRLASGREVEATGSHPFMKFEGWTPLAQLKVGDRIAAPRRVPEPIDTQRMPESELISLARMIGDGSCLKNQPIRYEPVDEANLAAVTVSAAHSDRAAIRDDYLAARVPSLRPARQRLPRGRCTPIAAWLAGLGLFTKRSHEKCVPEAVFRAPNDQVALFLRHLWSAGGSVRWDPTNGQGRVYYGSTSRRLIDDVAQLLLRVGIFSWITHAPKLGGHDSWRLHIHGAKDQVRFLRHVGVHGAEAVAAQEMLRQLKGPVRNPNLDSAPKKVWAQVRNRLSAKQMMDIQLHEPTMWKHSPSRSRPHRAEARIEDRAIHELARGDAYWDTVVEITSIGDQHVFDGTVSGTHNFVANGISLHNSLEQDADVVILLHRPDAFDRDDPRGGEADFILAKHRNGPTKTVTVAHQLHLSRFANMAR

Caspase-6 = target: T4, Caspase-6 (Homo sapiens, UniProt P55212); experiment: human caspase-6 inhibitors, dose response, biochemical, VEID-R110 fluorescence, cherry-pick (AID 720632)
T4 sequence (P55212 whole entry): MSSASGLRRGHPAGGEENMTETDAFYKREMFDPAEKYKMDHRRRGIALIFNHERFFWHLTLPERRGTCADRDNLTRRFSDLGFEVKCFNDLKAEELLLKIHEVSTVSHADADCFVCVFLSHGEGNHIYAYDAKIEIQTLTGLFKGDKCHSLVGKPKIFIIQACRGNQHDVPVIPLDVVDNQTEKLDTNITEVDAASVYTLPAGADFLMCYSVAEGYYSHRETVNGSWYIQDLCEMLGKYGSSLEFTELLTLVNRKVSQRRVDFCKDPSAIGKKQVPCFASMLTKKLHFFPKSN

Chain of Small ubiquitin-related modifier 1 (P63165 whole entry): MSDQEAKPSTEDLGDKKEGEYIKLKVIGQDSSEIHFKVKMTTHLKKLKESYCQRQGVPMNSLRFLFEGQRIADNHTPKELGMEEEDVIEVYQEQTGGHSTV
Chain of Small ubiquitin-related modifier 2 (P61956 whole entry): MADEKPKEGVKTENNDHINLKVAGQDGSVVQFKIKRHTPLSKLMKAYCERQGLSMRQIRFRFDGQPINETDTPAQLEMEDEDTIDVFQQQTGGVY
Chain of Genome polyprotein (P29990 2492-3391 limits assumed): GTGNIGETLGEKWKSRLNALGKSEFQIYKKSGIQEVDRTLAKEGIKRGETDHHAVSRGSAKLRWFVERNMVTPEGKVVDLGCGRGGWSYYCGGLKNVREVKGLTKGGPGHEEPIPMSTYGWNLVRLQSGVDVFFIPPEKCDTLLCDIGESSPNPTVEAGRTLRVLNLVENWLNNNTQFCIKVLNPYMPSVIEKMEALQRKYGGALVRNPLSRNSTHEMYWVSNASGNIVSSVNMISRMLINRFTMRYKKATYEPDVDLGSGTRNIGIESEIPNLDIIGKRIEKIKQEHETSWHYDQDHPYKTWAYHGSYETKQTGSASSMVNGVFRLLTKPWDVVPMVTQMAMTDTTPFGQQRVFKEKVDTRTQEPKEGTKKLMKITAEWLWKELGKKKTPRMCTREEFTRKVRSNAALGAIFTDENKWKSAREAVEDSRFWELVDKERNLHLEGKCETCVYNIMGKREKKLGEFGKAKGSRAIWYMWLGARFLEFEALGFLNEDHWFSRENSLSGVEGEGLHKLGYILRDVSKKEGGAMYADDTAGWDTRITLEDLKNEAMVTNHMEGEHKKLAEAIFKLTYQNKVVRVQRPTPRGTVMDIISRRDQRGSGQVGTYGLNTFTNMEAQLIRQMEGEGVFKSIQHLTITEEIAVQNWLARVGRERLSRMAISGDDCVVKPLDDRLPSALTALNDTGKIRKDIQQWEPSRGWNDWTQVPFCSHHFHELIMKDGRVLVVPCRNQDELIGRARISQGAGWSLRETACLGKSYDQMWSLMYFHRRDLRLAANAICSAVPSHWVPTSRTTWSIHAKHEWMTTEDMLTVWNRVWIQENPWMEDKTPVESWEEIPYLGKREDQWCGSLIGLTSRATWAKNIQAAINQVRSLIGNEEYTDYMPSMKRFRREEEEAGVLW

**Q.** `CCN1/C(=C/c2ccc3cc(C)ccc3[n+]2CC)Sc2cc(C)c(C)cc21` was tested. Which EC50 [1] did it give?
**A.** 8.22 µM (active)

**Q.** What about the EC50 (Streptokinase A) of the same compound?
**A.** > 150 µM (not active)

**Q.** Which results are given for `Nc1ccc2nc3c(O)nc(S)nc3nc2c1`?
**A.** IC50 [2]: 0.584 µM (active); IC50 [3]: 5.69 µM (active); AC50 [4]: 46.1 µM (active)

**Q.** Which IC50 (Genome polyprotein) does the source give for `Cc1oc2c(c1C(=O)c1ccccc1)C(=O)C(=O)c1ccccc1-2` here?
**A.** 48.4 µM (active)

**Q.** `O=C1CCCC2=C1C1(O)C(=O)c3ccccc3C1(O)O2` (stereo unspecified) was tested. Which AC50 [5] did it give?
**A.** 5.49 µM (active)

**Q.** Which IC50 [2] does the source give for `CSc1ccc(C=NNc2ccc(S(=O)(=O)Nc3ccccc3C(=O)O)cc2[N+](=O)[O-])cc1` here?
**A.** 53.1 µM (inactive)

**Q.** What about the AC50 (Caspase-6) of the same compound?
**A.** 6.66 µM (active)

**Q.** And the IC50 [3]?
**A.** 3.23 µM (active)

**Q.** For `O=C1C(Cl)=C(NCCN2CCCCC2)C(=O)c2ccccc21`, which AC50 [5] is on record?
**A.** 14 µM (active)

**Q.** For `COc1cc(NCCCNC(C)C)c2nccc(C)c2c1`, which AC50 (Caspase-6) is on record?
**A.** 33.5 µM (active)

**Q.** Which results are given for `CC(/C=C1\SC(=S)N(NS(=O)(=O)c2ccccc2)C1=O)=C\c1ccccc1`?
**A.** EC50 [1]: 1.94 µM (active); IC50 (Genome polyprotein): 29.3 µM (active); AC50 [4]: > 100 µM (inactive); EC50 (Streptokinase A): 21.4 µM (active)
